Data published in patent US20040115160A1, “Quaternary ammonium esters for disinfection and preservation” (priority 2002, published 2004).
Structures can show the parent of a compound that is named as a salt.

Assays:
[1] = tested on: Acanthamoeba polyphaga strain Ros cysts; experiment: Acanthamoeba contact lens disinfectant challenge test assay; type: cell-based; conditions: 25 ppm
Description: Acanthamoeba polyphaga strain Ros were used in this study. Trophozoites were maintained at 30° C. in an axenic broth medium composed of 20.0 g Biosate™ (Becton Dickinson, United Kingdom), 5.0 g glucose, 0.3 g KH2PO4, 10 μg vitamin B12 and 15.0 mg L-methionine per litre of deionized water. The pH was adjusted to 6.5-6.6 with 1 M NaOH before autoclaving at 121° C. for 12 minutes. Penicillin and streptomycin were added to a final concentration of 150 μ/ml before use.
Cysts were prepared from trophozoite cultures using the axenic medium supplemented with 50 mM MgCl2. The encystment medium was inoculated with approximately 2×10^5 /ml trophoxoites for culture at 30° C. in a shaking incubator (100 rpm) for 7 days. Cells were enumerated using haemocytometer counting.
The challenge test assay protocol, as described by R. Hughes and S. Kilvington, Comparison of Hydrogen Peroxide Contact Lens Disinfection Systems and Solutions Against Acanthamoeba Polyphaga, Antimicrob. Agents Chemother. 45: 2038-2043, (2001), is set forth in detail below. The number of surviving organisms was calculated as described by L. J. Reed and H. Muench, A Simple Method for Estimating Fifty Percent Endpoints, Am. J. Hyg., 27: 493-497, (1938). Statistical analysis of the data was by One Way Analysis Of Variance (ANOVA).
1. Fifty ml polypropylene centrifuge tubes were aged overnight with 15 ml of disinfectant solution, i.e., ReNue™ 02 (Bausch & Lomb, Rochester, N.Y.). The tubes were then drained, the disinfectant solution discarded, and refilled with 10 ml of fresh disinfectant solution for testing.
2. To a flat-bottomed, 96 well microtitre plate having 8 columns labelled “A” through “H”, 180 μl of neutralizer, i.e., 0.1 percent Tween™ 80 (Baker, Inc., Phillipsburg, N.J.) in one-quarter strength Ringer's solution for biguanide based disinfectants, was added to the outer wells of columns A and H. 180 μl of one-quarter strength Ringer's solution was then added to the remaining inner wells of columns B through G.
3. Amoebae were adjusted to 5×10^6 /ml in one-quarter strength Ringer's solution and 100 μl (5×10^5) was added to 10 ml of disinfectant (5×10^4 /ml) or saline control.
4. At time intervals of 0, 1, 2, 3, 4, 6 and 24 hours:
i. vortexed tubes 5 seconds;
ii. in quadruplet, removed 20 μl (1000 cells) and added to neutralizer wells for the given time-point (i.e., column A, rows 9-12) and made serial 10-fold dilutions across the microtitre plate (i.e., to column D, rows 9-12); and
iii. repeated for each time point.
5. One drop of live E. coli from 3 ml pastette (25 μl of approximately 5×10^7 bacteria/ml) was then added to each well.
6. The plate was then incubated at 32° C. for up to 7 days.
7. The plate was inspected daily for 7 days for the presence of amoebal growth, either trophozoite replication or excystment and trophozoite replication, in the wells.
8. The number of surviving organisms was then estimated at each time interval by Reed and Muench computation and set forth below in Table 3.

SMILES	melting point	Amoebae Log Kill, Cysts ([1]; 1 Hr.)	Amoebae Log Kill, Cysts ([1]; 4 Hr.)
CCCCCCCCCCCCCCCC(=O)OCCC[N+](C)(C)C [Compound 6, N-palmitoyloxypropyl-N,N,N-trimethylammonium iodide]		0.46 Log	3.54 Log
CCCCCCCCCCCCCC(=O)OCCC[N+](C)(C)CC [Compound 8, N-myristoyloxypropyl-N,N-dimethyl-N-ethylammonium iodide]		1 Log	4 Log
CCCCCCCCCCCCCC(=O)OCCC[N+](C)(C)CCC [Compound 9, N-myristoyloxypropyl-N,N-dimethyl-N-propylammonium iodide]		3.69 Log	4 Log
CCCCCCCCCCCCCC(=O)OCCC[N+](C)(C)CCCCC [Compound 11, N-myristoyloxypropyl-N,N-dimethyl-N-pentylammonium iodide]		3.69 Log	3.69 Log
CCCCCCCCCCCCCC(=O)OCCC[N+](C)(C)CCCCCC [Compound 12, N-myristoyloxypropyl-N,N-dimethyl-N-hexylammonium iodide]		3.54 Log	3.54 Log

Further lines, with some results ahead:

melting point	SMILES	Amoebae Log Kill, Cysts ([1]; 1 Hr.)	Amoebae Log Kill, Cysts ([1]; 4 Hr.)
80 to 82 °C	CCCCCCCCCCCCCC(=O)OCCC[N+](C)(C)CCC (as salt: iodide) [Compound 9, N-myristoyloxypropyl-N,N-dimethyl-N-propylammonium iodide]		
87 to 89 °C	CCCCCCCCCCCCCC(=O)OCCC[N+](C)(C)CCCC (as salt: iodide) [Compound 10, N-myristoyloxypropyl-N-butyl-N,N-dimethylammonium iodide]		
90 to 91 °C	CCCCCCCCCCCCCC(=O)OCCC[N+](C)(C)CCCCC (as salt: iodide) [Compound 11, N-myristoyloxypropyl-N,N-dimethyl-N-pentylammonium iodide]		
78 to 79 °C	CCCCCCCCCCCCCC(=O)OCCC[N+](C)(C)CCCCCC (as salt: iodide) [Compound 12, N-myristoyloxypropyl-N,N-dimethyl-N-hexylammonium iodide]		
103 to 104 °C	CCCCCCCCCCCCCC(=O)OCCC[N+](C)(C)CCCCCCCCCC (as salt: iodide) [Compound 13, N-myristoyloxypropyl-N-decyl-N,N-dimethylammonium iodide]		
92 to 94 °C	CCCCCCCCCCCCCC(=O)OCCOCC[N+](C)(C)C (as salt: iodide) [Compound 15, N-myristoyloxyethoxyethyl-N,N,N-trimethylammonium iodide]		
